Assay results as given in PMC11767344, “Entire Encapsulation of Thymopentin by Extended Biphen[3]arene Carboxylate for Improving Plasma Stability” (Molecules, 2025).
Ends that are not written are not given here.

How the values were obtained:
[1] = Plasma stability of thymopentin by HPLC; format: in vitro ADME; conditions: thymopentin 1.0 mM, equal amount of rat plasma, 37 °C, HPLC-UV 210 nm
Experimental: To test the above hypothesis, we compared the plasma stability of free thymopentin, a host–guest mixture of thymopentin/ExBP3C, thymopentin/CP5A, and thymopentin/cucurbit[7]uril (CB[7]) using high-performance liquid chromatography (HPLC). According to a previously reported method, the above samples (all containing 1.00 mM of thymopentin) were dissolved in deionized water and then incubated with an equal amount of rat plasma at 37 °C. At predetermined intervals, 100 μL of solution in various groups were withdrawn and quenched with 100 μL of acetonitrile containing 0.1% trifluoroacetic acid (TFA). HPLC analysis was performed on an LC-10AT VP Plus liquid chromatography system with an SPD-10 A VP Plus UV–Vis detector operating at 210 nm and quantified using Shimadzu LC solution Lite. The column used was a C18 reverse-phase column, and the mobile phase was composed of solvent A (water containing 0.1% TFA) and solvent B (70% acetonitrile and 0.1% TFA); the injection volume and flow rate were respectively set as 20 μL and 1.00 mL∙min^−1. The appropriate calibration curve was first derived to calculate the concentration of thymopentin based on the above-mentioned procedure (Figure 5a). […]
Figure 5 (a) Calibration curve obtained by HPLC and used to calculate thymopentin concentration in plasma stability. […] (2.0 mM) as determined by HPLC.

[2] = test system: mouse fibroblast cell line (L929); assay: Cytotoxicity, Cell Counting Kit-8; format: cell-based; conditions: 24 h, 37 °C, 5% CO2, CCK-8, 450 nm; even at relatively high concentrations; mean ± SD, n = 5
Experimental: (§1) In practical biomedical applications, the safety profiles of supplementary materials are of great concern. Here we preliminarily investigated the cytotoxicity of ExBP3C on a mouse fibroblast cell line (L929) and its hemolytic activity toward rabbit red blood cells (rRBCs). ExBP3C was first dissolved in deionized water and diluted to the required concentrations. For cytotoxicity studies, ExBP3C samples were added to L929 cell-containing wells, which were incubated at 37 °C under 5% CO2 for 24 h, and then the Cell Counting Kit-8 reagent was added into each well to stain for 30 min. […] For the hemolysis assay, ExBP3C samples were added to an erythrocyte suspension at 37 °C for 24 h. After that, the suspension was centrifuged at 1000 rpm for 10 min, and 100 μL of supernatant was transferred to a 96-well plate for measurement by a plate reader. […] On the basis of experimental results and prior studies, we concluded that the administration of ExBP3C at the above examination range was relatively nontoxic on a cellular level.
(§2) Figure 6 (a) Relative viability of mouse fibroblast cell line (L929) after treatment with ExBP3C for 24 h at the indicated concentrations (mean ± SD, n = 5). (b) Hemolysis of ExBP3C toward rabbit red blood cells (rRBCs) after 24 h of incubation time, and the hemolytic rate of rRBCs incubated with 1% Triton X-100 was defined as 100% (mean ± SD, n = 3).

[3] = test system: rabbit red blood cells (rRBCs); assay: Hemolysis assay; format: cell-based; conditions: 320 μM, 37 °C, 24 h; 1% Triton X-100 defined as 100%; mean ± SD, n = 3
Experimental: as §1, §2

thymopentin = target: T1, thymopentin (Homo sapiens, UniProt P42166); assay: Isothermal titration calorimetry (ITC) of thymopentin into ExBP3C; format: binding; conditions: deionized water, 25 °C, ExBP3C 40 μM in cell, thymopentin 500 μM in syringe
T1 construct: purchased
Experimental: An isothermal microcalorimetric titration (ITC) experiment was further carried out in deionized water at 25 °C on a PEAQ-ITC to quantitatively assess the binding affinity and related thermodynamic parameters. A 300 μL solution of ExBP3C was placed in the sample cell at a concentration of 40 μM, and 70 μL of a solution of thymopentin (500 μM) was placed in the injection syringe. The titration was conducted by titration of 18 drops of thymopentin to the ExBP3C solution, and all solutions were degassed prior to titration. […] It should be noted that the binding stoichiometry between ExBP3C and thymopentin was determined to be 0.956 ± 0.011, which was very close to 1:1 and consistent with the above entire encapsulation mode (Figure 3). A larger interaction area of thymopentin/ExBP3C would facilitate the production of a stronger binding affinity.
Figure 3 ITC isotherm for the titration of thymopentin/ExBP3C in aqueous solution at room temperature (top: raw data; bottom: net reaction heat obtained from integration of calorimetric traces).

RKDVY [thymopentin]
Residual thymopentin after exposure to rat plasma, in words ([1]; 30 min): undetectable
Time until thymopentin became undetectable ([1]; alone or with macrocycle 2.0 mM): ≤ 30 min

extended biphen[3]arene carboxylate [ExBP3C]
Cytotoxicity against L929 cells, in words [2]: minimal cytotoxicity
Relative hemolysis [3]: 1.92%
binding stoichiometry, N (sites) (thymopentin): 0.956 ± 0.011
